Measured values published in ChEMBL document CHEMBL3616411, “Discovery of 1-hydroxypyridine-2-thiones as selective histone deacetylase inhibitors and their potential application for treating leukemia” (Bioorg Med Chem Lett, 2015).

Columns and labels:
[1] = Cytotoxicity against HEK293 cells assessed as reduction in cell viability; format: cell-based; details: human
[2] = system: U-937; assay: cells; format: functional, cell-based; details: Homo sapiens
[3] = target: Histone deacetylase 9 (Homo sapiens, UniProt Q9UKV0); assay: Inhibition of HDAC9 (unknown origin) using Boc-Lys(trifluoroacetyl)-AMC fluorogenic acetylated peptide substrate by fluorometric assay
[4] = system: THP-1; assay: cells; format: functional, cell-based; details: Homo sapiens
[5] = target: Histone deacetylase 5 (Homo sapiens, UniProt Q9UQL6); assay: Inhibition of HDAC5 (unknown origin) using Boc-Lys(trifluoroacetyl)-AMC fluorogenic acetylated peptide substrate by fluorometric assay
[6] = cells; format: functional, cell-based; details: Homo sapiens, IR-K562
[7] = target: T1, Histone deacetylase 8 (Homo sapiens, UniProt Q9BY41); assay: Inhibition of HDAC8 (unknown origin) using RHK(Ac)K(Ac) fluorogenic acetylated peptide substrate by fluorometric assay
T1 sequence (Q9BY41 whole entry): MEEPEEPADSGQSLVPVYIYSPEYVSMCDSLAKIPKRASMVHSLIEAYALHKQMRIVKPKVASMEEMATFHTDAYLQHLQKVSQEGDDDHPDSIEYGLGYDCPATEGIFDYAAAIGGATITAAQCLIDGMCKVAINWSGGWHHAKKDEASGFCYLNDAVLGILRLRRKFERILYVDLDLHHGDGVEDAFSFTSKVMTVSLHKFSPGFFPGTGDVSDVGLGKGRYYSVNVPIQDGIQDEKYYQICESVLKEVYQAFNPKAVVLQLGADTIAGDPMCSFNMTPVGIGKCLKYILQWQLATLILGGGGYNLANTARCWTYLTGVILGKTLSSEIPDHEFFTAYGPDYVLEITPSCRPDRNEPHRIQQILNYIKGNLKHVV

[8] = target: Histone deacetylase 2 (Homo sapiens, UniProt Q92769)
[9] = target: T2, Protein deacetylase HDAC6 (Homo sapiens, UniProt Q9UBN7); assay: Inhibition of HDAC6 (unknown origin) using RHKK(Ac) fluorogenic acetylated peptide substrate by fluorometric assay
T2 sequence (Q9UBN7 whole entry): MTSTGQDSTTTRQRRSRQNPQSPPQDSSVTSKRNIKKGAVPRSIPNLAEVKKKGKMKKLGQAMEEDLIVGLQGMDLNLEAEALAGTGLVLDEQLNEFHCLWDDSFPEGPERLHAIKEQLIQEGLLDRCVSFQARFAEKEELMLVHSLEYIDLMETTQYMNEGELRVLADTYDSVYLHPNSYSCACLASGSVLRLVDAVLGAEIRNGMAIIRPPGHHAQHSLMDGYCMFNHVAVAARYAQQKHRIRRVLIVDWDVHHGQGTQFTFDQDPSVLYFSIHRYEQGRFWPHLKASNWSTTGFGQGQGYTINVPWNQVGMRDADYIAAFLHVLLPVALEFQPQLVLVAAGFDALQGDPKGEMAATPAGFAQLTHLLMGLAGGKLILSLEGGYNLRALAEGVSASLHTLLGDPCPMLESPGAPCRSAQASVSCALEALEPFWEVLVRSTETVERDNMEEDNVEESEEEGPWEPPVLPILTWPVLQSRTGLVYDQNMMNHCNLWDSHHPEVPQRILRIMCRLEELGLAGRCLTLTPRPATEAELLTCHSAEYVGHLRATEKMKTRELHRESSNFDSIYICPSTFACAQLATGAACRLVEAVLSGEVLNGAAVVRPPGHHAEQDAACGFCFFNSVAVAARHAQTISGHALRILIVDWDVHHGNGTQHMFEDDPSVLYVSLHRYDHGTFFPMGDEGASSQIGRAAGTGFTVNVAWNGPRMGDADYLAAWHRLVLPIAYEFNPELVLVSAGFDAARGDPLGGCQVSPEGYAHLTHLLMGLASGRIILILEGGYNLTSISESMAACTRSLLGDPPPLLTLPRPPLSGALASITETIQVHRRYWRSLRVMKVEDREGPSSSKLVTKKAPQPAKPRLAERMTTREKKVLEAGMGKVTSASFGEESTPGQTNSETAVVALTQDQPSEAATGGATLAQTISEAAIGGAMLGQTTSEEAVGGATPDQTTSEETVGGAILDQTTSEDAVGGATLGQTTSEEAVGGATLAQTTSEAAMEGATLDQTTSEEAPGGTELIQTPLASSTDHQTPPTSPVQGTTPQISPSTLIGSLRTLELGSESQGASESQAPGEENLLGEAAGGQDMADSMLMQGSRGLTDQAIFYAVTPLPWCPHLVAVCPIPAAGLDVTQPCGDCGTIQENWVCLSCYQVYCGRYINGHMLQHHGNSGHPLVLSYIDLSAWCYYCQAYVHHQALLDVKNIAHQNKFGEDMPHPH

[10] = system: K562; assay: cells; format: functional, cell-based; details: Homo sapiens
[11] = target: Histone deacetylase 1 (Homo sapiens, UniProt Q13547); assay: Inhibition of HDAC1 (unknown origin) using RHKK(Ac) fluorogenic acetylated peptide substrate by fluorometric assay
[12] = target: Histone deacetylase 4 (Homo sapiens, UniProt P56524); assay: Inhibition of HDAC4 (unknown origin) using Boc-Lys(trifluoroacetyl)-AMC fluorogenic acetylated peptide substrate by fluorometric assay
[13] = in vitro; details: human, HEK293 cells (CC50) versus U937 cells (IC50)
[14] = Cytotoxicity against imatinib resistant human IR-K562 cells assessed as cell viability at 250 nM incubated for 1 day (reference value: 73.9%); format: functional; details: IR-K562, 24 h, read-out: Activity
[15] = in vitro; details: human, HEK293 cells (CC50) versus K562 cells (IC50)
[16] = in vitro; details: human, HEK293 cells (CC50) versus THP1 cells (IC50)
[17] = Cytotoxicity against imatinib resistant human IR-K562 cells assessed as cell viability at 250 nM incubated for 8 days (reference value: 89.4%); format: functional; details: IR-K562, 192 h, read-out: Activity
[18] = in vitro; details: human
[19] = Cytotoxicity against imatinib resistant human IR-K562 cells assessed as cell viability at 250 nM incubated for 5 days (reference value: 86.7%); format: functional; details: IR-K562, 120 h, read-out: Activity
[20] = Cytotoxicity against imatinib resistant human IR-K562 cells assessed as cell viability at 250 nM incubated for 3 days (reference value: 79.5%); format: functional; details: IR-K562, 72 h, read-out: Activity

Sequence of Histone deacetylase 1 (Q13547 whole entry): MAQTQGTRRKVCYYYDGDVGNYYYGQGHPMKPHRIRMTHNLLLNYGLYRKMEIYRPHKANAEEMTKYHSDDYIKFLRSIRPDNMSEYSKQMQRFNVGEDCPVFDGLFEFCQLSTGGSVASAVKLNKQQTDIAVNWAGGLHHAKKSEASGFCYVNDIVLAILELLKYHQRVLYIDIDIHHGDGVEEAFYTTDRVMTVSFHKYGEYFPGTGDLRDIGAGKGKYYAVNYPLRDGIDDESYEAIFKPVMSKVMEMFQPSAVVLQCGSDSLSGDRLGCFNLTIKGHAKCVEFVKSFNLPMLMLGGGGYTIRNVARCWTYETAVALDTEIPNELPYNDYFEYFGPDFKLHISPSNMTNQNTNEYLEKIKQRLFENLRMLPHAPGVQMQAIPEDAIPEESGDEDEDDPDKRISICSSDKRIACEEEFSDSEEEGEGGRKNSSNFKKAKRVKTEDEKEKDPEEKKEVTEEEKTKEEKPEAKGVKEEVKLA
Sequence of Histone deacetylase 9 (Q9UKV0 whole entry): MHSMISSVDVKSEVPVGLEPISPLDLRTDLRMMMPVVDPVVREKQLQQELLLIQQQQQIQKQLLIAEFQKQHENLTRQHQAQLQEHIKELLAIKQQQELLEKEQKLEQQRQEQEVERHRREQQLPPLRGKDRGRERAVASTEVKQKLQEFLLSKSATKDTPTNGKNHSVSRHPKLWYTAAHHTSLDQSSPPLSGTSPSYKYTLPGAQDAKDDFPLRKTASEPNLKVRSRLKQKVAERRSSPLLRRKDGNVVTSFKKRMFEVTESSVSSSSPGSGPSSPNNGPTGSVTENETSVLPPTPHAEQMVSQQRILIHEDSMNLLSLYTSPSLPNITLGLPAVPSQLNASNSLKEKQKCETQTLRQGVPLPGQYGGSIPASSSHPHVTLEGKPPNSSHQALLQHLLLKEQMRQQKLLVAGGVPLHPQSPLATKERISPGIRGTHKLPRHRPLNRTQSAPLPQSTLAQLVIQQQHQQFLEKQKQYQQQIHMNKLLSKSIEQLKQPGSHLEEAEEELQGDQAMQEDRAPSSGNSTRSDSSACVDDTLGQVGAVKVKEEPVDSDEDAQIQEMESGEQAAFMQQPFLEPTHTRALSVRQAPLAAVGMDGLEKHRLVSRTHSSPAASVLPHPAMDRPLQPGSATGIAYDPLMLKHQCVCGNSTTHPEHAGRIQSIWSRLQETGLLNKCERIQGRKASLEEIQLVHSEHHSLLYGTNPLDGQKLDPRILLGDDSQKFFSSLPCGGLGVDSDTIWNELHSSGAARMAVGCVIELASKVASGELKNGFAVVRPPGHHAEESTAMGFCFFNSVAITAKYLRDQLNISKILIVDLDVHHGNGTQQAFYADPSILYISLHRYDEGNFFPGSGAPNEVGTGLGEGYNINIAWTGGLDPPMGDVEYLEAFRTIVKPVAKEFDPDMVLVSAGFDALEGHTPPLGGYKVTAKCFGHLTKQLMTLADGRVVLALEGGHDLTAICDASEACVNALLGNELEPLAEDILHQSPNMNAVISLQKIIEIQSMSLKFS
Sequence of Histone deacetylase 4 (P56524 whole entry): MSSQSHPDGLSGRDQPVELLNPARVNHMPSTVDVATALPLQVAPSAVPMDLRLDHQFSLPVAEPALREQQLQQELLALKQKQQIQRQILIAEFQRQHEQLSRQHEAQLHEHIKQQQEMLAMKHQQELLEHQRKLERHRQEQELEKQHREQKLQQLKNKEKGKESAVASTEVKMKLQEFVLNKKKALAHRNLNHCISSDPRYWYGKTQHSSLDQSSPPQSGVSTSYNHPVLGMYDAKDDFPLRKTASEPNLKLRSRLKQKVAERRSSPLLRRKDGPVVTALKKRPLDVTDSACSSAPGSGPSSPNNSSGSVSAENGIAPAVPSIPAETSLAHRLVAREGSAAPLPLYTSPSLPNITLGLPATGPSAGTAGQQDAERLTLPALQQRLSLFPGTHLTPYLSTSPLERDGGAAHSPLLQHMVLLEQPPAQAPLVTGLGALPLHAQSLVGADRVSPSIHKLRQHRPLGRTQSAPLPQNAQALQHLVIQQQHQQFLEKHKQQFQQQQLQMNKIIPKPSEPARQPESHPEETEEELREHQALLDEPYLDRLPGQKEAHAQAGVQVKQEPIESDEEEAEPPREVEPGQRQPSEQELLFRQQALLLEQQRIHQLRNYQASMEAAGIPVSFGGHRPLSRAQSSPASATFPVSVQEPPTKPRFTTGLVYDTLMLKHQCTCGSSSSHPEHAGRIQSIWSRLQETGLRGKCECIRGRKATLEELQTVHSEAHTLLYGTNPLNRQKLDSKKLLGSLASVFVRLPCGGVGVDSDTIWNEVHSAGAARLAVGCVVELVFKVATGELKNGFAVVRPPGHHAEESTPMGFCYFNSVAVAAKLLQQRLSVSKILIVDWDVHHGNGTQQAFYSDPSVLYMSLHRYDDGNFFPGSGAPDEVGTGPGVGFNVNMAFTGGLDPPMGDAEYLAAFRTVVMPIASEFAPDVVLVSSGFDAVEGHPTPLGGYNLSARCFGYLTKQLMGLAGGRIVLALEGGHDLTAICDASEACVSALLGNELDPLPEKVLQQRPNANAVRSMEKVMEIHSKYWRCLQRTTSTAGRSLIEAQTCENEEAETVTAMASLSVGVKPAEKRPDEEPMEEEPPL
Sequence of Histone deacetylase 2 (Q92769 whole entry): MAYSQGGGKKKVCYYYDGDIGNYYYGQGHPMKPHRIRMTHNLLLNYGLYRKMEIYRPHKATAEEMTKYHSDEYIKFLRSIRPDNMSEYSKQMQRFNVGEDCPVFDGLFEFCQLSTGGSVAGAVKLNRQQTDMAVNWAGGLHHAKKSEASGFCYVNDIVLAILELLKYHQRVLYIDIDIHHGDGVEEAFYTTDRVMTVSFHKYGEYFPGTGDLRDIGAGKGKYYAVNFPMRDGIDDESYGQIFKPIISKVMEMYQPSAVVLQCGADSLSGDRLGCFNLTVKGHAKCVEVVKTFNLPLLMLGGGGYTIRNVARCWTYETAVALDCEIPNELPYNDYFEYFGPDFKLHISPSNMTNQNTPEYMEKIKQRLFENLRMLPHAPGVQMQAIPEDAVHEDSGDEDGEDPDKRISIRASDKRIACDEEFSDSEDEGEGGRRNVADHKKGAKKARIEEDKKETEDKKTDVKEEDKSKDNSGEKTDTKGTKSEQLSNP
Sequence of Histone deacetylase 5 (Q9UQL6 whole entry): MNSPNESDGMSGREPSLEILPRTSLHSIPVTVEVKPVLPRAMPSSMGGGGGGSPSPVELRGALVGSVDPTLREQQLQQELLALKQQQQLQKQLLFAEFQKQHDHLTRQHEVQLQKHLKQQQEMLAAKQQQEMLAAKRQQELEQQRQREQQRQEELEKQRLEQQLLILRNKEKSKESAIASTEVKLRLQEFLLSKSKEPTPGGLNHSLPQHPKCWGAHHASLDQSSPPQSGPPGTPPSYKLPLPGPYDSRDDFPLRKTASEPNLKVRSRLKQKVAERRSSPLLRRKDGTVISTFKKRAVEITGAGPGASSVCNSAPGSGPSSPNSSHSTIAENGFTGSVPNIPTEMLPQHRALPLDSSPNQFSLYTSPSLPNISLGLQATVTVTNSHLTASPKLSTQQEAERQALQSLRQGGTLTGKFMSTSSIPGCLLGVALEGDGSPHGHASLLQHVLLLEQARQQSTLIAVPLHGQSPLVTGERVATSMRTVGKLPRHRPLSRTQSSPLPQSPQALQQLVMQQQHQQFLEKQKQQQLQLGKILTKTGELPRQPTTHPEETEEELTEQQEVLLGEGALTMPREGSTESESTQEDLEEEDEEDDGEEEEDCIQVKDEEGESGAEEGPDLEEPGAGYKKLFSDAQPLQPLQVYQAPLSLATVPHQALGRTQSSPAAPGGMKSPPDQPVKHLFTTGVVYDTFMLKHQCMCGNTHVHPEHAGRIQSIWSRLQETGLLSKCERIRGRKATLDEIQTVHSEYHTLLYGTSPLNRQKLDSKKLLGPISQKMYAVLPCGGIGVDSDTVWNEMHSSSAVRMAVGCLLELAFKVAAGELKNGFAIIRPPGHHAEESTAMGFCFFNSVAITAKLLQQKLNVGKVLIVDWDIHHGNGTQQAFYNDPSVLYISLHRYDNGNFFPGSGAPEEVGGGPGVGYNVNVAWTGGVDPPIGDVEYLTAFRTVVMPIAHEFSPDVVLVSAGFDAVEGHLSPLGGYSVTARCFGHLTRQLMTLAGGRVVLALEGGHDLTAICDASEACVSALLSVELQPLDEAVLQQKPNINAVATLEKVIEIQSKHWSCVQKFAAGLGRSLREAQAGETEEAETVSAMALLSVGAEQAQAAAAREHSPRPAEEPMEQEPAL

In the case of `O=C(CCCCCCC(=O)Nc1ccccc1)NO` [VORINOSTAT], the CC50 [1] is reported as 100 µM.
`C[C@@H](NC(=O)c1cccc(=S)n1O)C(=O)O` gave an IC50 [2] of 25 µM, an IC50 [3] of 58 µM and an IC50 [4] of 2.2 µM. It also gave an IC50 [5] of 37 µM, an IC50 [6] of 18 µM and an IC50 [7] of 0.98 µM. The IC50 [8] was 400 µM, the IC50 [9] was 4.2 µM and the IC50 [10] was 3.7 µM. The IC50 [11] was 270 µM and the IC50 [12] was 100 µM.
`O=C(N[C@@H](C(=O)O)c1ccccc1)c1cccc(=S)n1O` showed an IC50 [2] of 57 µM, an IC50 [3] of 34 µM and an IC50 [4] of 6.4 µM. For the same molecule, the IC50 [5] was 27 µM, the IC50 [6] was 24 µM and the IC50 [7] was 1.2 µM. For the same molecule, the CC50 [1] was 76 µM, the IC50 [8] was 95 µM and the IC50 [9] was 8.8 µM. The IC50 [10] was 8.7 µM, the IC50 [11] was 93 µM and the IC50 [12] was 64 µM.
`O=C(O)c1cccc(=S)n1O` showed an IC50 [2] of 75 µM, an IC50 [3] of 47 µM and an IC50 [4] of 25 µM. For the same molecule, the IC50 [5] was 35 µM, the IC50 [6] was 52 µM and the IC50 [7] was 3.3 µM. The CC50 [1] was 97 µM, the IC50 [8] was 710 µM and the IC50 [9] was 0.15 µM. For the same molecule, the IC50 [10] was 18 µM, the IC50 [11] was 43 µM and the IC50 [12] was 71 µM.
`Cc1ccc(NC(=O)c2ccc(CN3CCN(C)CC3)cc2)cc1Nc1nccc(-c2cccnc2)n1` [IMATINIB] showed a selectivity ratio [13] of 0.44, an IC50 [2] of 19 µM and a viability at […] [14] of 47%. The IC50 [4] was 25 µM, the IC50 [6] was 1.1 µM and the CC50 [1] was 8.4 µM. It also gave a selectivity ratio [15] of 140, a selectivity ratio [16] of 0.34 and an IC50 [10] of 0.06 µM. For the same molecule, the viability at […] [17] was 71.1%, the selectivity ratio [18] was 7.6 and the viability at […] [19] was 65.1%. The viability at […] [20] was 58.7%.
In the case of `Cc1nc(Nc2ncc(C(=O)Nc3c(C)cccc3Cl)s2)cc(N2CCN(CCO)CC2)n1` [DASATINIB], the selectivity ratio [13] is reported as less than 0.1, the IC50 [4] is reported as 6 µM and the IC50 [6] is reported as 1.9 µM. For the same molecule, the CC50 [1] was 16 µM, the selectivity ratio [15] was 200 and the selectivity ratio [16] was 2.6. It also gave an IC50 [10] of 0.08 µM and a selectivity ratio [18] of 8.4.
